Laboratory results taken from PubChem BioAssay (NCI).
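All cell lines were grown in 96-well plates and treated with compound for 48 hours. GI50 marks 50% less growth. Definition used: TGI = concentration required for complete inhibition of growth.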

How the values were obtained:
Assay in all cases: growth of human tumour cells (NCI), 48 h
HOP-92 NSCLC = tested on: HOP-92 NSCLC
UO-31 renal = tested on: UO-31 renal
PC-3 prostate = tested on: PC-3 prostate
MALME-3M melanoma = tested on: MALME-3M melanoma
M14 melanoma = tested on: M14 melanoma
MDA-MB-231 breast = tested on: MDA-MB-231 breast
SK-MEL-5 melanoma = tested on: SK-MEL-5 melanoma
BT-549 breast = tested on: BT-549 breast
HS 578T breast = tested on: HS 578T breast
RPMI-8226 leukemia = tested on: RPMI-8226 leukemia
HT29 colon = tested on: HT29 colon
UACC-257 melanoma = tested on: UACC-257 melanoma
LOX IMVI melanoma = tested on: LOX IMVI melanoma
OVCAR-5 ovarian = tested on: OVCAR-5 ovarian
OVCAR-4 ovarian = tested on: OVCAR-4 ovarian
DU-145 prostate = tested on: DU-145 prostate
OVCAR-8 ovarian = tested on: OVCAR-8 ovarian
OVCAR-3 ovarian = tested on: OVCAR-3 ovarian
HCT-15 colon = tested on: HCT-15 colon
A549 NSCLC = tested on: A549 NSCLC
786-0 renal = tested on: 786-0 renal
SNB-75 CNS = tested on: SNB-75 CNS
MOLT-4 leukemia = tested on: MOLT-4 leukemia
SNB-19 CNS = tested on: SNB-19 CNS
CAKI-1 renal = tested on: CAKI-1 renal
A498 renal = tested on: A498 renal
IGROV1 ovarian = tested on: IGROV1 ovarian
TK-10 renal = tested on: TK-10 renal
MDA-MB-435 = tested on: MDA-MB-435
KM12 colon = tested on: KM12 colon
HL-60(TB) leukemia = tested on: HL-60(TB) leukemia
T-47D breast = tested on: T-47D breast
EKVX NSCLC = tested on: EKVX NSCLC
HCC-2998 colon = tested on: HCC-2998 colon
SR leukemia = tested on: SR leukemia
K-562 leukemia = tested on: K-562 leukemia
SK-MEL-2 melanoma = tested on: SK-MEL-2 melanoma
SW-620 colon = tested on: SW-620 colon
ACHN renal = tested on: ACHN renal
HOP-62 NSCLC = tested on: HOP-62 NSCLC
NCI-H226 lung = tested on: NCI-H226 lung
NCI-H522 lung = tested on: NCI-H522 lung
U251 CNS = tested on: U251 CNS
NCI/ADR-RES ovarian = tested on: NCI/ADR-RES ovarian
SK-MEL-28 melanoma = tested on: SK-MEL-28 melanoma
UACC-62 melanoma = tested on: UACC-62 melanoma
SF-539 CNS = tested on: SF-539 CNS
SF-295 CNS = tested on: SF-295 CNS
SK-OV-3 ovarian = tested on: SK-OV-3 ovarian
SF-268 CNS = tested on: SF-268 CNS
COLO 205 colon = tested on: COLO 205 colon
MCF7 breast = tested on: MCF7 breast
RXF 393 renal = tested on: RXF 393 renal
HCT-116 colon = tested on: HCT-116 colon
SN12C renal = tested on: SN12C renal

CCOC(=O)Cc1csc(NC(=O)COC(=O)c2ccc(N)cc2)n1 gave a GI50 (HOP-92 NSCLC) of 20.7 µM, a TGI (HOP-92 NSCLC) of 44.8 µM and a GI50 (UO-31 renal) of 76.6 µM. For the same compound, the TGI (UO-31 renal) was greater than 100 µM, the GI50 (PC-3 prostate) was 68.4 µM and the TGI (PC-3 prostate) was greater than 100 µM. For the same compound, the GI50 (MALME-3M melanoma) was greater than 100 µM, the TGI (MALME-3M melanoma) was greater than 100 µM and the GI50 (M14 melanoma) was greater than 100 µM. For the same compound, the TGI (M14 melanoma) was greater than 100 µM, the GI50 (MDA-MB-231 breast) was greater than 100 µM and the TGI (MDA-MB-231 breast) was greater than 100 µM. It also gave a GI50 (SK-MEL-5 melanoma) of 97.6 µM, a TGI (SK-MEL-5 melanoma) greater than 100 µM and a GI50 (BT-549 breast) greater than 100 µM. The TGI (BT-549 breast) was greater than 100 µM, the GI50 (HS 578T breast) was greater than 100 µM and the TGI (HS 578T breast) was greater than 100 µM. For the same compound, the GI50 (RPMI-8226 leukemia) was 40.4 µM, the TGI (RPMI-8226 leukemia) was greater than 100 µM and the GI50 (HT29 colon) was 56.9 µM. The TGI (HT29 colon) was greater than 100 µM, the GI50 (UACC-257 melanoma) was greater than 100 µM and the TGI (UACC-257 melanoma) was greater than 100 µM. It also gave a GI50 (LOX IMVI melanoma) of 14.1 µM, a TGI (LOX IMVI melanoma) of 34.6 µM and a GI50 (OVCAR-5 ovarian) of 59.3 µM. It also gave a TGI (OVCAR-5 ovarian) greater than 100 µM, a GI50 (OVCAR-4 ovarian) of 72 µM and a TGI (OVCAR-4 ovarian) greater than 100 µM. For the same compound, the GI50 (DU-145 prostate) was greater than 100 µM, the TGI (DU-145 prostate) was greater than 100 µM and the GI50 (OVCAR-8 ovarian) was 95.7 µM. For the same compound, the TGI (OVCAR-8 ovarian) was greater than 100 µM, the GI50 (OVCAR-3 ovarian) was 18.8 µM and the TGI (OVCAR-3 ovarian) was 50.7 µM. For the same compound, the GI50 (HCT-15 colon) was greater than 100 µM, the TGI (HCT-15 colon) was greater than 100 µM and the GI50 (A549 NSCLC) was greater than 100 µM. The TGI (A549 NSCLC) was greater than 100 µM, the GI50 (786-0 renal) was 23.8 µM and the TGI (786-0 renal) was 56.9 µM. The GI50 (SNB-75 CNS) was 54.4 µM, the TGI (SNB-75 CNS) was greater than 100 µM and the GI50 (MOLT-4 leukemia) was 28.5 µM. It also gave a TGI (MOLT-4 leukemia) of 81.4 µM, a GI50 (SNB-19 CNS) greater than 100 µM and a TGI (SNB-19 CNS) greater than 100 µM. It also gave a GI50 (CAKI-1 renal) greater than 100 µM, a TGI (CAKI-1 renal) greater than 100 µM and a GI50 (A498 renal) greater than 100 µM. The TGI (A498 renal) was greater than 100 µM, the GI50 (IGROV1 ovarian) was 21.8 µM and the TGI (IGROV1 ovarian) was 49.8 µM. The GI50 (TK-10 renal) was greater than 100 µM, the TGI (TK-10 renal) was greater than 100 µM and the GI50 (MDA-MB-435) was greater than 100 µM. For the same compound, the TGI (MDA-MB-435) was greater than 100 µM, the GI50 (KM12 colon) was greater than 100 µM and the TGI (KM12 colon) was greater than 100 µM. The GI50 (HL-60(TB) leukemia) was 20 µM, the TGI (HL-60(TB) leukemia) was 41.3 µM and the GI50 (T-47D breast) was 75.4 µM. It also gave a TGI (T-47D breast) greater than 100 µM, a GI50 (EKVX NSCLC) greater than 100 µM and a TGI (EKVX NSCLC) greater than 100 µM. It also gave a GI50 (HCC-2998 colon) greater than 100 µM, a TGI (HCC-2998 colon) greater than 100 µM and a GI50 (SR leukemia) of 13.4 µM. The TGI (SR leukemia) was 45.2 µM, the GI50 (K-562 leukemia) was 88.3 µM and the TGI (K-562 leukemia) was greater than 100 µM. The GI50 (SK-MEL-2 melanoma) was greater than 100 µM, the TGI (SK-MEL-2 melanoma) was greater than 100 µM and the GI50 (SW-620 colon) was greater than 100 µM. The TGI (SW-620 colon) was greater than 100 µM, the GI50 (ACHN renal) was greater than 100 µM and the TGI (ACHN renal) was greater than 100 µM. For the same compound, the GI50 (HOP-62 NSCLC) was greater than 100 µM, the TGI (HOP-62 NSCLC) was greater than 100 µM and the GI50 (NCI-H226 lung) was greater than 100 µM. It also gave a TGI (NCI-H226 lung) greater than 100 µM, a GI50 (NCI-H522 lung) of 18.8 µM and a TGI (NCI-H522 lung) of 40 µM. For the same compound, the GI50 (U251 CNS) was greater than 100 µM, the TGI (U251 CNS) was greater than 100 µM and the GI50 (NCI/ADR-RES ovarian) was greater than 100 µM. It also gave a TGI (NCI/ADR-RES ovarian) greater than 100 µM, a GI50 (SK-MEL-28 melanoma) greater than 100 µM and a TGI (SK-MEL-28 melanoma) greater than 100 µM. The GI50 (UACC-62 melanoma) was greater than 100 µM, the TGI (UACC-62 melanoma) was greater than 100 µM and the GI50 (SF-539 CNS) was 19.3 µM. For the same compound, the TGI (SF-539 CNS) was 37 µM, the GI50 (SF-295 CNS) was greater than 100 µM and the TGI (SF-295 CNS) was greater than 100 µM. The GI50 (SK-OV-3 ovarian) was greater than 100 µM, the TGI (SK-OV-3 ovarian) was greater than 100 µM and the GI50 (SF-268 CNS) was 23.6 µM. The TGI (SF-268 CNS) was 60 µM, the GI50 (COLO 205 colon) was greater than 100 µM and the TGI (COLO 205 colon) was greater than 100 µM. For the same compound, the GI50 (MCF7 breast) was 97.9 µM, the TGI (MCF7 breast) was greater than 100 µM and the GI50 (RXF 393 renal) was greater than 100 µM. For the same compound, the TGI (RXF 393 renal) was greater than 100 µM, the GI50 (HCT-116 colon) was greater than 100 µM and the TGI (HCT-116 colon) was greater than 100 µM. It also gave a GI50 (SN12C renal) greater than 100 µM and a TGI (SN12C renal) greater than 100 µM.
